Like-named read-outs stand apart in the source and are kept apart here.
System: chick embryos
Description: I have investigated the effect of EM fields on the ability of taxol to create abnormalities in rapidly dividing cells. The model for this purpose was chick embryos. The embryos were incubated in the presence of a 60 Hz, 8 μT EM field. After 48 hours of continuous incubation, either dimethyl sulfoxide (DMSO) alone (controls) or Taxol dissolved in DMSO was injected. EM field incubation was continued for an additional 48 hours. At the end of 4 days incubation, embryos were visualized and classified as normal or abnormal (deformed, young, or dead).

CC(=O)O[C@H]1C(=O)[C@@]2(C)[C@H]([C@H](OC(=O)c3ccccc3)[C@]3(O)C[C@H](OC(=O)[C@H](O)[C@@H](NC(=O)c4ccccc4)c4ccccc4)C(C)=C1C3(C)C)[C@]1(OC(C)=O)CO[C@@H]1C[C@@H]2O [Taxol]
Percent Abnormal Embryos (Taxol + EM fields: 60 Hz, 8 μT for 48 hours before injection and an additional 48 hours after, embryos classified at 4 days): 31.1%
Percent Abnormal Embryos (Taxol alone, dissolved in DMSO, injected after 48 hours of incubation, embryos classified normal or abnormal (deformed, young, or dead) at 4 days): 19.3%
Toxic effect of taxol with EM field exposure compared with taxol alone (in vivo): very significant increase in the toxic effect
